In patent US6603044B1, “Phthalamide derivatives, or salt thereof agrohorticultural insecticide, and method for using the same” (Nihon Nohyaku Co., Ltd., priority 1998, dated 2003):

system: Diamond Back Moth (Plutella xylostella); experiment: Insecticidal effect on diamond back moth (Test Example 1); type: in vivo; conditions: 50 ppm; Chinese cabbage seedling with deposited eggs immersed about 30 seconds; 25° C.; six days after the immersion
From the text: Insecticidal Effect on Diamond Back Moth (Plutella xylostella)
Adult diamondback moths were released and allowed to oviposit on a Chinese cabbage seedling. Two days after the release, the seedling having the eggs deposited thereon was immersed for about 30 seconds in a liquid chemical prepared by diluting a preparation containing each compound listed in Table 1, 2 or 3 as an active ingredient to adjust the concentration to 50 ppm. After air-dryness, it was allowed to stand in a room thermostatted at 25° C. Six days after the immersion, the hatched insects were counted. The mortality was calculated according to the following equation and the insecticidal effect was judged according to the criterion shown below. The test was carried out with triplicate groups of 10 insects.

Compound | Test Example 1 insecticidal effect (mortality)
CSCCN(C)C(=O)c1c(F)cccc1C(=O)Nc1ccc(C(F)(C(F)(F)F)C(F)(F)F)cc1C [2-7] | A (100)
Cc1cc(C(F)(C(F)(F)F)C(F)(F)F)ccc1NC(=O)c1cccc(F)c1C(=O)N(C)CC[S+](C)[O-] (centres unmarked) [2-9] | A (100)
CCN(CC[S+](C)[O-])C(=O)c1c(F)cccc1C(=O)Nc1ccc(C(F)(C(F)(F)F)C(F)(F)F)cc1C (centres unmarked) [2-11] | A (100)
CCN(CSC)C(=O)c1c(Cl)cccc1C(=O)Nc1ccc(OC(F)(F)F)cc1C [2-16] | A (100)
Cc1cc(C(F)(C(F)(F)F)C(F)(F)F)ccc1NC(=O)c1cccc(I)c1C(=O)N1CCSC1 [3-2] | A (100)
CSCC(C)NC(=O)c1cccc(S(C)(=O)=O)c1C(=O)Nc1ccc(C(F)(C(F)(F)F)C(F)(F)F)cc1C (centres unmarked) [Compound No. 192, N^1-(4-Heptafluoroisopropyl-2-methylphenyl)-N^2-(1-methyl-2-methylthioethyl)-6-methylsulfonylphthalamide] | A (100)
CSCC(C)NC(=O)c1c(I)cccc1C(=O)Nc1ccc(OC(F)F)cc1C (centres unmarked) [compound 4] | A (100)
CSCC(C)NC(=O)c1c(I)cccc1C(=O)Nc1ccc(Cl)cc1C (centres unmarked) [compound 9] | A (100)
CSCC(C)NC(=O)c1c(F)cccc1C(=O)Nc1ccc(OC(F)(F)F)cc1C (centres unmarked) [compound 12] | A (100)
CSCC(C)NC(=O)c1c(F)cccc1C(=O)Nc1ccc(OC(F)F)cc1C (centres unmarked) [compound 13] | A (100)
CSCC(C)NC(=O)c1ccccc1C(=O)Nc1ccc(C(F)(F)C(F)(F)F)cc1C (centres unmarked) [compound 14] | A (100)
CSCC(C)NC(=O)c1ccccc1C(=O)Nc1ccc(OC(F)(F)F)cc1C (centres unmarked) [compound 15] | A (100)
CCSCC(C)NC(=O)c1c(F)cccc1C(=O)Nc1ccc(OC(F)(F)F)cc1C (centres unmarked) [compound 27] | A (100)
CSCC(CSC)NC(=O)c1c(I)cccc1C(=O)Nc1ccc(C(F)(F)C(F)(F)F)cc1C [compound 36] | A (100)
CSCC(C)NC(=O)c1ccc(Cl)c(Cl)c1C(=O)Nc1ccc(C(F)(C(F)(F)F)C(F)(F)F)cc1C (centres unmarked) [compound 42] | A (100)
CSCC(C)NC(=O)c1c(I)cccc1C(=O)Nc1cc2c(cc1Cl)OC(F)(F)C(F)O2 (centres unmarked) [compound 47] | A (100)
CSCCNC(=O)c1cccc(I)c1C(=O)Nc1ccc(OC(F)(F)F)cc1C [compound 51] | A (100)
CSCCNC(=O)c1c(I)cccc1C(=O)Nc1ccc(OC(F)(F)F)cc1C [compound 52] | A (100)
CSCCCNC(=O)c1c(I)cccc1C(=O)Nc1ccc(OC(F)(F)F)cc1C [compound 55] | A (100)
Cc1cc(OC(F)(F)F)ccc1NC(=O)c1cccc(I)c1C(=O)NCCSC(C)C [compound 58] | A (100)

Compound | Test Example 1 insecticidal effect (mortality)
CCSCCNC(=O)c1c(I)cccc1C(=O)Nc1ccc(OC(F)(F)F)cc1C [compound 71] | A (100)
CCCCCCSCC(C)NC(=O)c1c(I)cccc1C(=O)Nc1ccc(OC(F)(F)F)cc1C (centres unmarked) [compound 77] | A (100)
CCCCCCSCC(C)NC(=O)c1c(I)cccc1C(=O)Nc1ccc(C(F)(C(F)(F)F)C(F)(F)F)cc1C (centres unmarked) [compound 78] | A (100)
CC(CS(C)(=O)=O)NC(=O)c1c(I)cccc1C(=O)Nc1cc2c(cc1Cl)OC(F)(F)C(F)O2 (centres unmarked) [compound 103] | A (100)
CSCC(C)NC(=O)c1c(C(=O)Nc2ccc(OC(F)(F)F)cc2C)cccc1[N+](=O)[O-] (centres unmarked) [compound 104] | A (100)
CSCC(C)NC(=O)c1cc(I)ccc1C(=O)Nc1ccc(OC(F)(F)F)cc1C (centres unmarked) [compound 107] | A (100)
CSCC(C)NC(=O)c1ccc(I)cc1C(=O)Nc1ccc(OC(F)(F)F)cc1C (centres unmarked) [compound 110] | A (100)
Cc1cc(C(F)(F)C(F)(F)F)ccc1NC(=O)c1c(Cl)cccc1C(=O)NC(C)CS(C)(=O)=O (centres unmarked) [compound 116] | A (100)
CCC(CSC)NC(=O)c1c(I)cccc1C(=O)Nc1ccc(C(F)(C(F)(F)F)C(F)(F)F)cc1C (centres unmarked) [compound 120] | A (100)
CSCC(C)NC(=O)c1c(SC(F)(F)F)cccc1C(=O)Nc1ccc(C(F)(F)C(F)(F)F)cc1C (centres unmarked) [compound 129] | A (100)
CSCC(C)NC(=O)c1c(C(=O)Nc2ccc(C(F)(C(F)(F)F)C(F)(F)F)cc2C)cccc1[S+]([O-])C(F)(F)F (centres unmarked) [compound 132] | A (100)
CSCC(C)NC(=O)c1c(C(=O)Nc2ccc(OC(F)(F)F)cc2C)ccc(F)c1Cl (centres unmarked) [compound 147] | A (100)
CSCCCC(C)NC(=O)c1cccc(Cl)c1C(=O)Nc1ccc(C(F)(F)C(F)(F)F)cc1C (centres unmarked) [compound 151] | A (100)
Cc1cc(C(F)(F)C(F)(F)F)ccc1NC(=O)c1cccc(Cl)c1C(=O)NC(C)CCC[S+](C)[O-] (centres unmarked) [compound 152] | A (100)
CSCC(C)NC(=O)c1c(C(=O)Nc2ccc(C(F)(F)C(F)(F)F)cc2C)ccc2c1OCO2 (centres unmarked) [compound 158] | A (100)
Cc1cc(C(F)(C(F)(F)F)C(F)(F)F)ccc1NC(=O)c1cccc(Cl)c1C(=O)NC(C)(C)C[S+](C)[O-] (centres unmarked) [compound 172] | A (100)
CC[S+]([O-])CCCCC(C)NC(=O)c1c(I)cccc1C(=O)Nc1ccc(C(F)(F)C(F)(F)F)cc1C (centres unmarked) [compound 177] | A (100)
Cc1cc(OC(F)(F)F)ccc1NC(=O)c1ccc(Cl)c(Cl)c1C(=O)NC(C)CS(C)(=O)=O (centres unmarked) [compound 194] | A (100)
CCSC(C)CNC(=O)c1cccc(I)c1C(=O)Nc1ccc(C(F)(C(F)(F)F)C(F)(F)F)cc1C (centres unmarked) [compound 209] | A (100)
CC[S+]([O-])CCCC(C)NC(=O)c1c(Br)cccc1C(=O)Nc1ccc(C(F)(C(F)(F)F)C(F)(F)F)cc1C (centres unmarked) [compound 214] | A (100)

Compound | Test Example 1 insecticidal effect (mortality)
COc1ccc(C(=O)Nc2ccc(C(F)(C(F)(F)F)C(F)(F)F)cc2C)c(C(=O)NC(C)CSC)c1Cl (centres unmarked) [compound 222] | A (100)
Cc1cc(OC(F)(F)F)ccc1NC(=O)c1cccc(I)c1C(=O)NC1CCSC1 (centres unmarked) [compound 258] | A (100)
CCS(=O)(=O)CCC(C)NC(=O)c1c(Cl)cccc1C(=O)Nc1ccc(C(F)(C(F)(F)F)C(F)(F)F)cc1C (centres unmarked) [compound 275] | A (100)
Cc1cc(C(F)(F)F)ccc1NC(=O)c1cccc(Br)c1C(=O)NC(C)CS(C)(=O)=O (centres unmarked) [compound 277] | A (100)
Cc1cc(C(F)(C(F)(F)F)C(F)(F)F)ccc1NC(=O)c1ccc2c(c1C(=O)NC(C)CS(C)(=O)=O)OC(F)(F)O2 (centres unmarked) [compound 289] | A (100)
CSCC(C)(C)NC(=O)c1c(C(=O)Nc2ccc(OC(F)(F)F)cc2C)ccc2c1OC(F)(F)O2 [compound 292] | A (100)
CSCC(C)NC(=O)c1c(I)cccc1C(=O)Nc1ccc(C(F)(F)F)cc1C (centres unmarked) [compound 307] | A (100)
CSCC(C)(C)NC(=O)c1c(C(=O)Nc2ccc(OC(F)(F)F)cc2C)cccc1[N+](=O)[O-] [compound 322] | A (100)
CSCC(C)(C)NC(=O)c1c(C(=O)Nc2ccc(Br)cc2C)cccc1[N+](=O)[O-] [compound 324] | A (100)
COC(=O)CC[S+]([O-])CC(C)NC(=O)c1c(I)cccc1C(=O)Nc1ccc(C(F)(C(F)(F)F)C(F)(F)F)cc1C (centres unmarked) [compound 342] | A (100)
COC(=O)CCS(=O)(=O)CC(C)NC(=O)c1c(I)cccc1C(=O)Nc1ccc(C(F)(C(F)(F)F)C(F)(F)F)cc1C (centres unmarked) [compound 343] | A (100)
Cc1cc(C(F)(C(F)(F)F)C(F)(F)F)ccc1NC(=O)c1cccc(I)c1C(=O)NC(C)CS(=O)(=O)c1nc2ccccc2s1 (centres unmarked) [compound 345] | A (100)
CCSCC(C)NC(=O)c1ccc(OC(F)(F)F)cc1C(=O)Nc1ccc(C(F)(C(F)(F)F)C(F)(F)F)cc1C (centres unmarked) [compound 347] | A (100)
CSCC(C)(C)NC(=O)c1ccc(OC(F)(F)F)cc1C(=O)Nc1ccc(C(F)(C(F)(F)F)C(F)(F)F)cc1C [compound 356] | A (100)
C[S+]([O-])CC(C)(C)NC(=O)c1c(C(=O)Nc2ccc(OC(F)(F)F)cc2Cl)cccc1[N+](=O)[O-] (centres unmarked) [compound 377] | A (100)
CC(C)(CS(C)(=O)=O)NC(=O)c1c(C(=O)Nc2ccc(OC(F)(F)F)cc2Cl)cccc1[N+](=O)[O-] [compound 378] | A (100)
Cc1cc(C(F)(C(F)(F)F)C(F)(F)F)ccc1NC(=O)c1ccc(C)c(Cl)c1C(=O)NC(C)CS(C)(=O)=O (centres unmarked) [compound 379] | A (100)
C[S+]([O-])CC(C)(C)NC(=O)c1c(F)cccc1C(=O)Nc1ccc(OC(F)(F)F)cc1Cl (centres unmarked) [compound 386] | A (100)
CC(C)(CS(C)(=O)=O)NC(=O)c1c(F)cccc1C(=O)Nc1ccc(OC(F)(F)F)cc1Cl [compound 387] | A (100)
